Test systems include UACC-62 melanoma; SK-OV-3 ovarian; MDA-MB-231 breast; K-562 leukemia; M14 melanoma; DU-145 prostate; HCC-2998 colon; KM12 colon; NCI-H460 lung; NCI-H226 lung.
Assay in all cases: DTP human tumour cell line panel, 48 h

Several values for one entry are separate records, joined by “and”; a condition that tells them apart may be missing. Equal entries are not always repeated.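 The compound was tested at five concentrations on cells cultured in 96-well plates, with a 48-hour exposure period. GI50 is the concentration that inhibits growth by half. TGI: total growth inhibition.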 Where only a bound is given, the exact number is not on record here.

Take `Cc1cc(C)c(NC(=S)NC(=O)c2ccccc2)cc1C`: the TGI with UACC-62 melanoma, with SK-OV-3 ovarian, in the test on MDA-MB-231 breast, in the test on K-562 leukemia, in the test on M14 melanoma and in the test with DU-145 prostate was above 100 µM each time. Besides, the TGI in the test on HCC-2998 colon, with KM12 colon, with NCI-H460 lung and in the test with NCI-H226 lung was above 100 µM each time.

Take `COc1cc(CNc2ccccc2C(=O)N2CCN(C(=O)c3cc(-c4cc(OC)c(OC)c(OC)c4)n4nc(-c5ccccc5)cc4n3)CC2)cc(OC)c1OC`: the GI50 with UACC-62 melanoma was 2.37 µM; with SK-OV-3 ovarian, 4.42 µM; in the test on MDA-MB-231 breast, 7.02 µM; in the test on K-562 leukemia it was 1.56 µM; in the test with M14 melanoma it was 4.05 µM; in the test on DU-145 prostate it was 3.96 µM. Further, the GI50 in the test with HCC-2998 colon is 5.8 µM; with KM12 colon, 2.78 µM; in the test on NCI-H460 lung, 3.32 µM; in the test with NCI-H226 lung, 4.44 µM. The TGI in the test with UACC-62 melanoma was above 100 µM; in the test on SK-OV-3 ovarian, 38.4 µM; with MDA-MB-231 breast, 67.8 µM; with K-562 leukemia it was above 100 µM; with M14 melanoma it was above 100 µM; in the test on DU-145 prostate, above 100 µM. Moreover, the concentration for total growth inhibition (TGI) in the test on HCC-2998 colon is above 100 µM; with KM12 colon it was above 100 µM; in the test on NCI-H460 lung it was above 100 µM; in the test on NCI-H226 lung, 59.4 µM.

As for `COc1cc(-c2nc(-c3nc4ccccc4[nH]3)cc3c2[nH]c2ccccc23)cc(OC)c1OC`, the GI50 is 3.38 µM with UACC-62 melanoma; above 100 µM in the test with SK-OV-3 ovarian; 8.38 µM in the test with MDA-MB-231 breast; 4.33 µM with K-562 leukemia; 4.18 µM with M14 melanoma; 6.27 µM in the test with DU-145 prostate. Moreover, the GI50 in the test with HCC-2998 colon was 7.32 µM; in the test with KM12 colon, 3.67 µM; with NCI-H460 lung, 3.96 µM; in the test on NCI-H226 lung it was 7.19 µM. For the same compound, the total growth inhibition concentration (TGI) in the test with UACC-62 melanoma, with SK-OV-3 ovarian, with MDA-MB-231 breast, in the test on K-562 leukemia, in the test with M14 melanoma and in the test on DU-145 prostate was above 100 µM in each case. Besides, the TGI in the test with HCC-2998 colon, in the test with KM12 colon, in the test on NCI-H460 lung and in the test with NCI-H226 lung was above 100 µM each time.

For the compound `O=C1/C(=C\c2ccccn2)c2ccccc2N1c1c(Cl)cccc1Cl`, the GI50 is 1.62 µM in the test on UACC-62 melanoma; 3.01 µM with SK-OV-3 ovarian; 2.17 µM in the test with MDA-MB-231 breast; 3.89 µM with K-562 leukemia; 1.78 µM in the test with M14 melanoma; 1.94 µM with DU-145 prostate. The GI50 in the test with HCC-2998 colon is 1.86 µM; in the test on KM12 colon, 1.69 µM; in the test with NCI-H460 lung, 1.88 µM; in the test on NCI-H226 lung it was 1.7 µM. For the same compound, the TGI in the test with UACC-62 melanoma was 3.68 µM; with SK-OV-3 ovarian, 10.2 µM; in the test with MDA-MB-231 breast, 5.74 µM; with K-562 leukemia it was above 100 µM; in the test on M14 melanoma, 3.72 µM; in the test with DU-145 prostate, 3.95 µM. Moreover, the TGI is 3.3 µM in the test with HCC-2998 colon, 3.22 µM in the test with KM12 colon, 3.65 µM in the test with NCI-H460 lung and 3.42 µM with NCI-H226 lung.

Turning to `COc1ccc(-c2c3c(n(C4OC(COC(C)=O)C(OC(C)=O)C(OC(C)=O)C4OC(C)=O)c(=S)c2C#N)CC(C)(C)CC3=O)cc1` (stereo not drawn), the TGI was above 100 µM in the test with UACC-62 melanoma; above 100 µM in the test on SK-OV-3 ovarian; above 100 µM in the test with MDA-MB-231 breast; 39.9 µM and > 100 µM in the test with K-562 leukemia; above 100 µM in the test with M14 melanoma; above 100 µM with DU-145 prostate. The total growth inhibition concentration (TGI) in the test on HCC-2998 colon, in the test on KM12 colon, in the test with NCI-H460 lung and in the test on NCI-H226 lung was above 100 µM throughout. The GI50 was 18.2 µM and 47.5 µM in the test on K-562 leukemia; 49.7 µM and > 100 µM with M14 melanoma; 46.8 µM and > 100 µM with DU-145 prostate.

Turning to `Nc1ccn(C2OC(COC(=O)C34CC5CC(CC(C5)C3)C4)C(O)C2O)c(=O)n1` (stereo not drawn), the concentration for total growth inhibition (TGI) in the test on UACC-62 melanoma, with SK-OV-3 ovarian, in the test with MDA-MB-231 breast, in the test on K-562 leukemia, with M14 melanoma and with DU-145 prostate was above 100 µM in each case. Besides, the total growth inhibition concentration (TGI) in the test with HCC-2998 colon was above 100 µM; with KM12 colon, above 100 µM; in the test on NCI-H460 lung, above 40.8 µM; with NCI-H226 lung, above 100 µM.

`COc1cccc(C2c3cc4c(cc3OC(N3CCCC3)C2C)OCO4)c1O` (stereo not drawn): the TGI in the test with UACC-62 melanoma is 43.7 µM; in the test with SK-OV-3 ovarian, 35.2 µM; in the test with MDA-MB-231 breast, 45.8 µM; in the test with K-562 leukemia it was 57.8 µM; with M14 melanoma, 12.6 µM; in the test on DU-145 prostate it was above 36.9 µM. Moreover, the TGI worked out at 46.9 µM in the test with HCC-2998 colon, 19.8 µM with KM12 colon, 32.4 µM in the test on NCI-H460 lung and 35.6 µM in the test with NCI-H226 lung.

Usually TGI stands for the concentration at which net growth stops. A lower TGI goes with greater sensitivity of the cells. One may read the GI50 as the concentration that inhibits growth by half.

The record behind these values is PubChem BioAssay (NCI).
